The text below walks through data of patent US20200268793A1, “METHODS AND COMPOSITIONS FOR ALLEVIATING CYTOKINE RELEASE SYNDROME” (MEMORIAL SLOAN-KETTERING CANCER CENTER, priority 2017, published 2020).

“Also recorded” adds a separate entry of the source. Where two headings read alike, the source gives them in different places.

For one test, the system named is cognate murine receptor. The settings on record: cytokines of human origin, cited from earlier work.
The test system of test [1] is SCID-beige mice with established intraperitoneal Raji tumors. Nature of the test: CRS mouse model: survival, weight change, toxicity and histopathology after CAR T cell transfer. The format is in vivo. The settings on record: tumor bearing mice after 1928z CAR T cell transfer; for Toxicity as witnessed by weight loss (percent weight change) under treatment: 5 mg/kg intraperitoneally once per day; for CRS-associated mortality (percent survival) under treatment: agent given intraperitoneally once per day for 5 days. Here is the method:
Mice were treated under a protocol approved by the MSKCC Institutional Animal Care and Use Committee. CRS Model: 6-8 week old female C.B.Igh-1b/GbmsTac-Prkdc^scidLyst^bgN7 (SCID-beige) mice (Taconic) were intraperitoneally injected with 3 million Raji-GFP-Fluc cells and tumors were left to grow for 20 days. Tumor burden was evaluated by in vivo bioluminescent imaging two days prior to CAR T cell transfer. Outliers, mice with inconsistently higher or lower tumor burdens were excluded from the experiment. Mice were injected intraperitoneally with 30 million CAR^+ T cells in PBS supplemented with 2% Human Serum. Control mice received PBS supplemented with 2% Human Serum. Stress test model: 6-8 week-old male NOD.Cg-Prkdc^scidIl2rg^tmWjl/SzJ (NSG) mice (Jackson Laboratory) were inoculated with 0.5×10^6 NALM-6-GFP-Fluc cells by tail vein injection followed by with 0.2×10^6 or with 0.5×10^6 CAR T cells four days later. Bioluminescence imaging utilized the Xenogen IVIS Imaging System (Xenogen) with Living Image software (Xenogen) for acquisition of imaging datasets. Tumor Burden was assessed as previously described^34.
(§1) Anakinra was administered intraperitoneally at 30 mg/kg once per day for 5 days, starting 5 hours prior to CAR T cell transfer. Anti-murine IL-6 (clone MP5-20F3, BioXcell) and anti-murine IL-6R (clone 15A7, BioXcell) were administered intraperitoneally once per day at 25 mg/kg for the first dose and 12.5 mg/kg for subsequent doses for 5 days starting 5 hours prior to CAR T cell transfer. L-NIL (Enzo Life Sciences) or 1400W (Cayman Chemical) were administered intraperitoneally at 5 mg/kg once per day for 5 days starting 5 hours prior to CAR T cell transfer.
Mice were transferred to the pathology core facility of Memorial Sloan Kettering where they were sacrificed by cardiac puncture. Tissues obtained were fixed in 10% buffered formalin and were further processed for H&E staining and immunohistochemistry.
To model CAR T cell-induced CRS, conditions were established whereby a high number of CD19 CAR T cells engaged a high tumor burden and yielded overt toxicity within 2-3 days^2-5 (FIG. 1A). […] The overall levels of these cytokines, including mIL6, mCCL2, mG-CSF, hIL-3, hIFN-γ, hGM-CSF, hIL-2 correlated strongly with CRS severity and survival (FIGS. 1E-1L and 1S). The xenogeneic nature of this model was taken advantage of to discern the origin of these cytokines and chemokines. Thus, IL-6 was produced by endogenous murine cells while IFN-γ and GM-CSF were products of the CART cells. mIL6 and hIL6.^12, were not elevated in the absence of CART cells (FIGS. 1M-1O, 1T and 5D), establishing that this cardinal feature of CRS was the result a multicellular interaction and not the outcome of a T cell-tumor cell interaction.

Another test relates to iNOS. Nature of the test: iNOS expression in peritoneal macrophages by intracellular flow cytometry in CRS mice. It is filed as in vivo, mouse. The settings on record: 18 hours post CAR T cell transfer. The procedure: as §1
Antibodies were titrated for optimal staining. The following fluorophore conjugated antibodies were used (“h” prefix denotes anti-human, “m” prefix denotes anti-mouse): hCD4 BUV395 (clone RPA-T4, BD), hCD8 PE-Cy7 (clone SK1, eBioscience), hCD3 PerCP-efluor710 (clone OKT3, eBioscience), hCD19 BUV737 (clone SJ25C1, BD), hLNGFR BB515 (clone C40-1457, BD), mF4/80 BV421 and BV711 (clone T45-2342, BD), mLy6C Alexa Fluor 647 and BV786 (clone ER-MP20, AbdSerotec and clone HK1.4, BioLegend respectively), mMHCII BB515 (clone 2G9, BD), mCD11c BV650 (clone N418, BioLegend), mLy6G APC-Fire750 (clone 1A8, BioLegend), mSIGLEC-F PE-CF594 (clone E50-2440, BD), mCD40 BV786 (clone 3/23, BD), mCD40L PE (clone MR1, BD), mCD11b BUV395 (clone M1/70, BD), mNOS2 PE-Cy7 (clone CXNFT, eBioscience). […]

The next test relates to cognate human receptor. The following applies: cytokines of murine origin; cited from earlier work.

Consider IL-10: cytokine of human origin, for which the “Human on mouse (active on the cognate murine receptor)” value (from here on “Human on mouse”) in the test on cognate murine receptor is “Yes^40”.

For the molecule `CC(=N)NCCCC[C@H](N)C(=O)O` [L-NIL, L-N6-(1-iminoethyl)lysine], the “Toxicity as witnessed by weight loss (percent weight change) under treatment” value in test [1] is “robust reversal of toxicity”.

On to TNFa, for which the “Human on mouse” value in the test with cognate murine receptor was “Partial^40”; with cognate murine receptor (listed as Human TNF-α), “can signal through the murine p55 TNF receptor but not the p75 TNF receptor”.

Regarding IL-17: cytokine of human origin, the “Human on mouse” value in the test on cognate murine receptor was “Yes^40”.

As for `CC(=N)NCc1cccc(CN)c1` [1400W], in test [1], the “Toxicity as witnessed by weight loss (percent weight change) under treatment” value is recorded as “reversed toxicity” and the “CRS-associated mortality (percent survival) under treatment” value is “significantly prevented mortality”.

As to GM-CSF: cytokine of human origin, in the test with cognate murine receptor, the “Human on mouse” value is reported as “lack of activity; also recorded: No^39”.

For the molecule “human CD40L: CD40 ligand, mainly expressed by T cells”, the “Human on mouse” value with cognate murine receptor is on record as “does not functionally interact”.

On to IFNg: cytokine of human origin, for which the “Human on mouse” value in the test with cognate murine receptor is on record as “No^38”; in the test with cognate murine receptor (listed as human IFN-γ), “lack of activity”.

Take IL-8: cytokine of human origin: the “Human on mouse” value in the test with cognate murine receptor is “Yes^40”.

As to “Anakinra: IL-1Ra polypeptide used for IL-1 blockade”, the “iNOS+ macrophage fraction” value in the test on iNOS is recorded as “similarly reduced”. For the same molecule, the “CRS-associated mortality (percent survival) under treatment” value in test [1] was “completely abrogated CRS-related mortality”.

Regarding IL-13: cytokine of human origin, in the test with cognate murine receptor, the “Human on mouse” value is “Yes^40”.

B1: IL-5: cytokine of murine origin (protein, UniProt P04401 21-133, looked up)
Interleukin-5: MEIPMSTVVKETLTQLSAHRALLTSNETMRLPVPTHKNHQLCIGEIFQGLDILKNQTVRGGTVEMLFQNLSLIKKYIDRQKEKCGEERRRTRQFLDYLQEFLGVMSTEWAMEG
B1: the “Mouse on human (active on the cognate human receptor)” value (from here on “Mouse on human”) with cognate human receptor was “Yes^40”.

B2: IL-15: cytokine of murine origin (protein, UniProt P48346 49-162, looked up)
Interleukin-15: NWIDVRYDLEKIESLIQSIHIDTTLYTDSDFHPSCKVTAMNCFLLELQVILHEYSNMTLNETVRNVLYLANSTLSSNKNVAESGCKECEELEEKTFTEFLQSFIRIVQMFINTS
B2: the “Mouse on human” value in the test with cognate human receptor was “Yes^39”.

B3: IL-6: cytokine of murine origin (protein, UniProt P08505 25-211, looked up)
Interleukin-6: FPTSQVRRGDFTEDTTPNRPVYTTSQVGGLITHVLWEIVEMRKELCNGNSDCMNNDDALAENNLKLPEIQRNDGCYQTGYNQEICLLKISSGLLEYHSYLEYMKNNLKDNKKDKARVLQRDTETLIHIFNQEVKDLHKIVLPTPISNALLTDKLESQKEWLRTKTIQFILKSLEEFLKVTLRSTRQT
Turning to B3, the “Mouse on human” value in the test on cognate human receptor is listed as “No^39”.
